Results reported in patent publication EP0637449A1, “Use of L-carnitine or acyl L-carnitines and valproate for treating seizure disorders” (Sigma-Tau Industrie Farmaceutiche Riunite S.p.A., priority 1993, dated 1995).

Test system: epileptic patients
Test: Clinical trial: seizure frequency in epileptic patients on valproate with added L-carnitine
Type: in vivo
Conditions: 45 patients treated only with valproate for at least six months, then valproate and L-carnitine for at least one year; compared with the pre-treatment period (valproate only). Pre-carnitine vs greater than 12 months p<0.001; start-6 months vs greater than 12 months p=0.0001; 6-12 months vs greater than 12 months p=0.0001
Description: Fortyfive patients, 20 females and 25 males, mean age 24.5±8.48 years, were included in the study.
Some patients had more than one seizure type.
All of the patients had been treated only with valproate for at least six months.
Subsequently, they were treated with both valproate and L-carnitine for at least one year.
At intervals L-carnitine activity was assessed on some parameters including seizure frequency, in comparison with the pre-treatment period (valproate only, no L-carnitine). The intervals selected for all the controls were: between the start to 6 months of L-carnitine therapy, […], and L-carnitine therapy greater than 12 months.
Parameter assessment was not carried out at prefixed dates but within the 0-6, 6-12 and greater than 12 month periods in order to evaluate the seizure frequency over a sufficiently extended time period.

Question: How did the seizure frequency turn out when `C[N+](C)(C)C[C@H](O)CC(=O)[O-]` [L-carnitine] was run?
Answer: The seizure frequency was “decreased progressively and steadily”.
